Molecules are shown by their SMILES.

From ChEMBL document CHEMBL1146810, “Synthesis of a bromotyrosine-derived natural product inhibitor of mycothiol-S-conjugate amidase” (Bioorg Med Chem Lett, 2004) come the findings set out here.

Assay [1] has as its system Mycobacterium tuberculosis. Kind of assay: Inhibitory activity against mycothiol-S-conjugate amidase (MCA) was determined.
Assay [2] can be described thus: Inhibitory activity against AcGI deacetylase was determined.

As to `NCCCOc1c(Br)cc(C/C(=N\O)C(=O)NCCCCN=C(N)N)cc1Br`, the Inhibition amounted to 30 µM in assay [1] and 150 µM in assay [2].
